Each block holds one compound with its values, some of them ahead of it. The source made the active and inactive calls. The rule behind the calls is not given here.
Tests used:
[1] = Mean residence time in rat; type: ADME; conditions: in vivo
[2] = Oral bioavailability in rat; type: ADME, organism-based; conditions: in vivo
[3] = Clearance in rat; type: ADME; conditions: in vivo
[4] = target: T1, Hexokinase-4 (Homo sapiens, UniProt P35557); assay: Activation of recombinant human glucokinase assessed as conversion of D-glucose to D-glucose-6-phosphate in presence of 10 mM glucose by G6PDH coupled spectrophotometric assay
T1 sequence (P35557 whole entry): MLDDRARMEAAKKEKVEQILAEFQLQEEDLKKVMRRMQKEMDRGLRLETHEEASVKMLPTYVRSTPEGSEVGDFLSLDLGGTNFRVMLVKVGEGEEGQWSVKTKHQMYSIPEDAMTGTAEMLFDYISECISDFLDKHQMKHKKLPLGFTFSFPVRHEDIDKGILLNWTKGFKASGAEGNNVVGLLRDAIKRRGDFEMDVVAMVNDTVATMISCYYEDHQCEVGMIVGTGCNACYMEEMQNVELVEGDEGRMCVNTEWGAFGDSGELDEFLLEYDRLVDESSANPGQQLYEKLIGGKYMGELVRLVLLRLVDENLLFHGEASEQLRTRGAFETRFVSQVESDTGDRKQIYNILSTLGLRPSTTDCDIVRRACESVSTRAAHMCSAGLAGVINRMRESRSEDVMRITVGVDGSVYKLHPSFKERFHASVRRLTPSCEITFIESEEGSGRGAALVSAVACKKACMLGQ

[5] = Apparent permeability of the compound; type: physicochemical; conditions: not told
[6] = Half life in rat; type: ADME; conditions: in vivo
[7] = Fraction unbound in C57BL/6 mouse plasma; type: ADME, cell-free
[8] = Ratio of drug level in HFD-fed C57BL/6 mouse pancreas to plasma at 10 mg/kg, po measured 4 hrs post dose; type: ADME, organism-based
[9] = test system: Mus musculus; assay: Antidiabetic activity in HFD-fed C57BL/6 mouse assessed as decrease in blood glucose level at 10 mg/kg, po; type: functional, organism-based
[10] = Total drug level in HFD-fed C57BL/6 mouse pancreas at 10 mg/kg, po measured 4 hrs post dose; type: ADME, organism-based; conditions: read-out: Drug uptake
[11] = Total drug level in HFD-fed C57BL/6 mouse liver at 10 mg/kg, po measured 4 hrs post dose; type: ADME, organism-based; conditions: read-out: Drug uptake
[12] = Total drug level in HFD-fed C57BL/6 mouse plasma at 10 mg/kg, po measured 4 hrs post dose; type: ADME, organism-based
[13] = test system: Mus musculus; assay: Toxicity in HFD-fed C57BL/6 mouse assessed as increase in plasma insulin level at 10 mg/kg, po; type: organism-based; conditions: in vivo
[14] = Ratio of drug level in HFD-fed C57BL/6 mouse liver to pancreas at 10 mg/kg, po measured 4 hrs post dose; type: ADME, organism-based; conditions: in vivo
[15] = Ratio of drug level in HFD-fed C57BL/6 mouse liver to plasma at 10 mg/kg, po measured 4 hrs post dose; type: ADME, organism-based
[16] = Oral bioavailability in mouse; type: ADME, organism-based; conditions: in vivo
[17] = Ratio of drug level in HFD-fed C57BL/6 mouse pancreas to plasma at 30 mg/kg, ip measured 4 hrs post dose; type: ADME, organism-based
[18] = Ratio of drug level in HFD-fed C57BL/6 mouse liver to pancreas at 30 mg/kg, ip measured 4 hrs post dose; type: ADME, organism-based; conditions: in vivo
[19] = test system: Mus musculus; assay: Toxicity in HFD-fed C57BL/6 mouse assessed as increase in plasma insulin level at 10 mg/kg, ip; type: organism-based; conditions: in vivo
[20] = Total drug level in HFD-fed C57BL/6 mouse liver at 30 mg/kg, ip measured 4 hrs post dose; type: ADME, organism-based; conditions: read-out: Drug uptake
[21] = Ratio of drug level in HFD-fed C57BL/6 mouse liver to plasma at 30 mg/kg, ip measured 4 hrs post dose; type: ADME, organism-based
[22] = test system: Mus musculus; assay: Antidiabetic activity in HFD-fed C57BL/6 mouse assessed as decrease in blood glucose level at 10 to 30 mg/kg, ip; type: functional, organism-based
[23] = Total drug level in HFD-fed C57BL/6 mouse pancreas at 30 mg/kg, ip measured 4 hrs post dose; type: ADME, organism-based; conditions: read-out: Drug uptake
[24] = test system: Mus musculus; assay: Antidiabetic activity in HFD-fed C57BL/6 mouse assessed as decrease in plasma insulin level at 30 mg/kg, ip; type: functional, organism-based
[25] = Total drug level in HFD-fed C57BL/6 mouse plasma at 30 mg/kg, ip measured 4 hrs post dose; type: ADME, organism-based
[26] = Ratio of drug level in HFD-fed C57BL/6 mouse pancreas to plasma at 30 mg/kg, po measured 4 hrs post dose; type: ADME, organism-based
[27] = Total drug level in HFD-fed C57BL/6 mouse plasma at 3 mg/kg, po measured 4 hrs post dose; type: ADME, organism-based
[28] = Ratio of drug level in HFD-fed C57BL/6 mouse liver to pancreas at 3 mg/kg, po measured 4 hrs post dose; type: ADME, organism-based; conditions: in vivo
[29] = Total drug level in HFD-fed C57BL/6 mouse liver at 3 mg/kg, po measured 4 hrs post dose; type: ADME, organism-based; conditions: read-out: Drug uptake
[30] = Ratio of drug level in HFD-fed C57BL/6 mouse liver to plasma at 3 mg/kg, po measured 4 hrs post dose; type: ADME, organism-based
[31] = Ratio of drug level in HFD-fed C57BL/6 mouse pancreas to plasma at 3 mg/kg, po measured 4 hrs post dose; type: ADME, organism-based
[32] = test system: Mus musculus; assay: Toxicity in HFD-fed C57BL/6 mouse assessed as increase in plasma insulin level at 30 mg/kg, po; type: organism-based; conditions: in vivo
[33] = Total drug level in HFD-fed C57BL/6 mouse plasma at 30 mg/kg, po measured 4 hrs post dose; type: ADME, organism-based
[34] = test system: Mus musculus; assay: Antidiabetic activity in HFD-fed C57BL/6 mouse assessed as decrease in blood glucose level at 30 mg/kg, po; type: functional, organism-based
[35] = Total drug level in HFD-fed C57BL/6 mouse pancreas at 3 mg/kg, po measured 4 hrs post dose; type: ADME, organism-based; conditions: read-out: Drug uptake
[36] = Total drug level in HFD-fed C57BL/6 mouse pancreas at 30 mg/kg, po measured 4 hrs post dose; type: ADME, organism-based; conditions: read-out: Drug uptake
[37] = Ratio of drug level in HFD-fed C57BL/6 mouse liver to plasma at 30 mg/kg, po measured 4 hrs post dose; type: ADME, organism-based
[38] = Total drug level in HFD-fed C57BL/6 mouse liver at 30 mg/kg, po measured 4 hrs post dose; type: ADME, organism-based; conditions: read-out: Drug uptake
[39] = Ratio of drug level in HFD-fed C57BL/6 mouse liver to pancreas at 30 mg/kg, po measured 4 hrs post dose; type: ADME, organism-based; conditions: in vivo

- MRT [1]: 0.76 h
- bioavailability [2]: 57%
- clearance [3]: 28 mL/min/kg
- EC50 [4]: 14 nM
- Papp [5]: 26 ×10⁻⁶ cm/s
- half-life [6]: 2.1 h
- fraction unbound [7]: 0.003
Structure (SMILES): COc1ccc(Sc2ccc(Sc3ccccn3)nc2C(=O)Nc2ncc(SCC(=O)O)s2)cc1

- EC50 [4]: 49 nM
Structure (SMILES): COc1ccc(Sc2ccc(Sc3ccccn3)nc2C(=O)Nc2nc(CC(=O)O)cs2)cc1

- Kp at 4 h [8]: 0.5
- bioavailability [2]: 100%
- concentration at 4 h [10]: 8.7 µM
- clearance [3]: 1.9 mL/min/kg
- concentration at 4 h [11]: 77.7 µM
- concentration at 4 h [12]: 18.5 µM
- EC50 [4]: 27.7 nM
- Ratio [14]: 8.9
- Papp [5]: 21 ×10⁻⁶ cm/s
- half-life [6]: 2.7 h
- Kp at 4 h [15]: 4.5
Structure (SMILES): Cc1ccc(Sc2ccc(Sc3nnc[nH]3)nc2C(=O)Nc2ncns2)cn1
- Activity [9]: Active
- Activity [13]: Toxic

- bioavailability [16]: 3%
- MRT [1]: 0.64 h
- Kp at 4 h [17]: 0.16
- Ratio [18]: 113
- bioavailability [2]: 1 to 1.2%
- concentration at 4 h [20]: 452 µM
- clearance [3]: 115 mL/min/kg
- Kp at 4 h [21]: 14.9
- concentration at 4 h [23]: 4 µM
- EC50 [4]: 51.5 nM
- concentration at 4 h [25]: 31 µM
- Papp [5]: 2 ×10⁻⁶ cm/s
- half-life [6]: 2 h
Structure (SMILES): COc1ccc(Sc2ccc(Sc3nncn3C)nc2C(=O)Nc2ncc(SCC(=O)O)s2)cc1
- Activity [19]: Non-Toxic
- Activity [22]: Active
- Activity [24]: Active

- EC50 [4]: 5.7 nM
- Papp [5]: 22 ×10⁻⁶ cm/s
Structure (SMILES): COc1ccc(Sc2ccc(Sc3ccccn3)nc2C(=O)Nc2nc(CC(=O)O)c(Cl)s2)cc1

- Kp at 4 h [26]: 0.11
- concentration at 4 h [27]: 0.62 µM
- MRT [1]: 1.4 h
- Kp at 4 h [8]: 0.1
- bioavailability [2]: 25%
- Ratio [28]: 159
- concentration at 4 h [10]: 0.47 µM
- clearance [3]: 50 mL/min/kg
- concentration at 4 h [29]: 10.4 µM
- Kp at 4 h [30]: 17.7
- concentration at 4 h [11]: 51.5 µM
- Kp at 4 h [31]: 0.13
- concentration at 4 h [12]: 4.5 µM
- concentration at 4 h [33]: 19.6 µM
- concentration at 4 h [35]: 0.074 µM
- concentration at 4 h [36]: 2.1 µM
- Kp at 4 h [37]: 6.7
- EC50 [4]: 9.6 nM
- concentration at 4 h [38]: 127 µM
- Ratio [39]: 70
- Ratio [14]: 127 to 128
- Papp [5]: 25 ×10⁻⁶ cm/s
- half-life [6]: 3.9 h
- fraction unbound [7]: 0.049
- Kp at 4 h [15]: 12.4
Structure (SMILES): O=C(O)Cc1nc(NC(=O)c2nc(Sc3ccccn3)ccc2Sc2ccc(F)cc2)sc1Cl
- Activity [9]: Active
- Activity [32]: Toxic
- Activity [34]: Active
- Activity [13]: Non-Toxic

- EC50 [4]: 68.5 nM
Structure (SMILES): COc1ccc(Sc2ccc(Sc3ccccn3)nc2C(=O)Nc2ncc(CCC(=O)O)s2)cc1

— ChEMBL document CHEMBL4014286, “Discovery of orally active hepatoselective glucokinase activators for treatment of Type II Diabetes Mellitus” (Bioorg Med Chem Lett, 2017)
